Assay results published in patent US20090247519A1, “AMINO-ETHYL-AMINO-ARYL (AEAA) COMPOUNDS AND THEIR USE” (priority 2006, published 2009).

Target: T1, Human full length PKD2 (Homo sapiens, UniProt Q9BZL6)
T1 construct: Human full length PKD2 at ˜100 μg/mL was purchased from Upstate Ltd; purchased Upstate Ltd 14-506
T1 sequence (Q9BZL6 1-878): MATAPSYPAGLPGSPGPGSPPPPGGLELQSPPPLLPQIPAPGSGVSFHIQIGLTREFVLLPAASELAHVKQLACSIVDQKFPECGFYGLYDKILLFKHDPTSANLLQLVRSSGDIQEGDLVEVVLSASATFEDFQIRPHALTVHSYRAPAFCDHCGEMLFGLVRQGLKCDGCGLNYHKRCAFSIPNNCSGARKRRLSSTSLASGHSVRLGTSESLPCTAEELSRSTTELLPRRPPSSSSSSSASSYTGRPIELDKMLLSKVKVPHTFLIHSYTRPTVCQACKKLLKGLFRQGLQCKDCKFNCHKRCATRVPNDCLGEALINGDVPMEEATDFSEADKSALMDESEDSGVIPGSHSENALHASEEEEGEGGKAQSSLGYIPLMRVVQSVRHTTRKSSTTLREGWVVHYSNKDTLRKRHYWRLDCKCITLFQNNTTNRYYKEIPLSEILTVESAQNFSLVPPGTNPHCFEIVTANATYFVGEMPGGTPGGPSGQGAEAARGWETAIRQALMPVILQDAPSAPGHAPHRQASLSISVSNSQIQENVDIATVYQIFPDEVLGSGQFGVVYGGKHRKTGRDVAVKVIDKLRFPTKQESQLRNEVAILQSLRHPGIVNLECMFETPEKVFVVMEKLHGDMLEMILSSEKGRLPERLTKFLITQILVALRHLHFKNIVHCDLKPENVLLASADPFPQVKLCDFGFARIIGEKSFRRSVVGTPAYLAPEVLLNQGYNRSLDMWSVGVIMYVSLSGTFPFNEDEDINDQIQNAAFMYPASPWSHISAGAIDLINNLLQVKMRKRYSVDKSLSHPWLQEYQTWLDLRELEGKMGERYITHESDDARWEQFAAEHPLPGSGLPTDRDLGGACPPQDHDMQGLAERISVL
Test: PKD2 (Human Full Length) Enzyme Activity Assay (IMAP fluorescence polarisation)
Assay type: biochemical
Settings: 10 point dose-response
Protocol: PKD2 (Human Full Length) Enzyme Activity Assay
Kinase Assay Reaction Buffer: This consisted of 0.22 μM filtered 25 mM HEPES and 10 mM MgCl2 pH 7.5.
Kinase: Human full length PKD2 at ˜100 μg/mL was purchased from Upstate Ltd (Product code 14-506), and obtained from aliquots stored at −70° C. It was prepared with a final concentration of […] by diluting 1:300 in Reaction Buffer (30 μL per 9 mL-5 mL per plate with an additional 4 mL dead volume) and vortexing prior to use. It is necessary to check this concentration regularly in case of enzyme degradation. […]
5 μL Kinase/Substrate in Reaction Buffer was added to ‘test’ and all ‘control’ wells of a Corning black low binding 384 well (90 μL volume) microplate to give 0.1 μg/mL and 2 μM reaction concentration respectively. […] The fluorescence polarisation of the peptide substrate was measured using an analyst (Molecular devices) microplate reader with a single read at Ex485 Em535 (Analyst settings: Z Height 5 mm, G Factor 0.95, Reads/well 1, Integration 100000 μs, Gain Sensitivity 2).
Percentage inhibition was calculated based on activity of the test sample minus the average values in the blank wells relative to the average values measured in control wells minus the average values in the blank wells.
IC50 values were calculated from 10 point dose sigmoid ‘dose-response’ curves using XIfit software (IDBS inc, USA). […]

IC50: 4.1 nM
SMILES: CC[C@@H](N)CN(C)c1ccnc(-c2cc(Cl)ccc2O)n1 [XX-276, 2-{4-[((R)-2-Amino-butyl)-methyl-amino]-pyrimidin-2-yl}-4-chloro-phenol]
